Test results reported in ChEMBL document CHEMBL1201862, “PubChem BioAssay data set” (2004).
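All cell lines were grown in 96-well plates and treated with compound for 48 hours. Abbreviation: GI50, concentration required for 50% inhibition of growth.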 Calls of active or inactive are those of the source. No stated cut-off is given here; in the data, active = GI50 up to about 1.1 µM and inactive = higher.

Key:
Assay in all cases: inhibition of tumour cell growth, NCI panel, 48 h
[1] = system: SK-MEL-2
[2] = system: Malme-3M
[3] = system: PC-3
[4] = system: RXF 393
[5] = system: OVCAR-5
[6] = system: HCT-116
[7] = system: OVCAR-4
[8] = system: HCC 2998
[9] = system: SR
[10] = system: 786-0
[11] = system: SF-539
[12] = system: CCRF-CEM
[13] = system: DU-145
[14] = system: HT-29
[15] = system: SK-MEL-5
[16] = system: SNB-19
[17] = system: ACHN
[18] = system: HOP-92
[19] = system: UACC-257
[20] = system: OVCAR-3
[21] = system: HOP-62
[22] = system: HL-60
[23] = system: MOLT-4
[24] = system: NCI-H23
[25] = system: NCI-H522
[26] = system: SF-295
[27] = system: BT-549
[28] = system: SNB-75
[29] = system: NCI-H226
[30] = system: K562
[31] = system: CAKI-1
[32] = system: SK-MEL-28
[33] = system: UO-31
[34] = system: A549
[35] = system: U-251
[36] = system: SW-620
[37] = system: MCF7
[38] = system: MDA-N
[39] = system: IGROV-1
[40] = system: UACC-62
[41] = system: SN12C
[42] = system: MDA-MB-435
[43] = system: EKVX
[44] = system: MDA-MB-231
[45] = system: COLO 205
[46] = system: KM12
[47] = system: LOX IMVI
[48] = system: A498
[49] = system: OVCAR-8
[50] = system: NCI/ADR-RES
[51] = system: M14
[52] = system: RPMI-8226
[53] = system: NCI-H460
[54] = system: TK-10
[55] = system: SF-268
[56] = system: HCT-15
[57] = system: SK-OV-3
[58] = system: Hs-578T

## CSc1nc2c(c(=O)[nH]1)N=C(c1ccc(Cl)cc1)CC(c1ccccc1)N2 (stereo not drawn)
[1]
  GI50: 14.1 µM (inactive)
[2]
  GI50: 19.5 µM (inactive)
[3]
  GI50: 19 µM (inactive)
[4]
  GI50: 17.2 µM (inactive)
[5]
  GI50: 18.1 µM (inactive)
[6]
  GI50: 21.3 µM (inactive)
[7]
  GI50: 11.5 µM (inactive)
[8]
  GI50: 15.5 µM (inactive)
[9]
  GI50: 37.8 µM (inactive)
[10]
  GI50: 15.7 µM (inactive)
[11]
  GI50: 19.2 µM (inactive)
[12]
  GI50: 17.1 µM (inactive)
[13]
  GI50: 20.7 µM (inactive)
[14]
  GI50: 17.3 µM (inactive)
[15]
  GI50: 13.3 µM (inactive)
[16]
  GI50: 15.2 µM (inactive)
[17]
  GI50: 15.6 µM (inactive)
[18]
  GI50: 18.4 µM (inactive)
[19]
  GI50: 16.2 µM (inactive)
[20]
  GI50: 15.2 µM (inactive)
[21]
  GI50: 17.9 µM (inactive)
[22]
  GI50: 16.7 µM (inactive)
[23]
  GI50: 17.7 µM (inactive)
[24]
  GI50: 14.7 µM (inactive)
[25]
  GI50: 14.5 µM (inactive)
[26]
  GI50: 18.6 µM (inactive)
[27]
  GI50: 19.7 µM (inactive)
[28]
  GI50: 12.1 µM (inactive)
[29]
  GI50: 24.8 µM (inactive)
[30]
  GI50: 22.2 µM (inactive)
[31]
  GI50: 20 µM (inactive)
[32]
  GI50: 17.3 µM (inactive)
[33]
  GI50: 13.9 µM (inactive)
[34]
  GI50: 13.6 µM (inactive)
[35]
  GI50: 17.7 µM (inactive)
[36]
  GI50: 18.8 µM (inactive)
[37]
  GI50: 19.1 µM (inactive)
[38]
  GI50: 17.6 µM (inactive)
[39]
  GI50: 15.5 µM (inactive)
[40]
  GI50: > 10 µM (inactive)
[41]
  GI50: 16.4 µM (inactive)
[42]
  GI50: 17.9 µM (inactive)
[43]
  GI50: 18.3 µM (inactive)
[44]
  GI50: 16.6 µM (inactive)
[45]
  GI50: 19.8 µM (inactive)
[46]
  GI50: 16.4 µM (inactive)
[47]
  GI50: 18.7 µM (inactive)
[48]
  GI50: 30.2 µM (inactive)
[49]
  GI50: 16.5 µM (inactive)
[50]
  GI50: 14.5 µM (inactive)
[51]
  GI50: 16.3 µM (inactive)
[52]
  GI50: 17.4 µM (inactive)

## CN(C)CCOC1(Cc2ccc(Cl)cc2Cl)CCC(C(C)(C)C)CC1 (stereo not drawn)
[53]
  GI50: 1.66 µM (inactive)
[1]
  GI50: 1.72 µM (inactive)
[2]
  GI50: 2.25 µM (inactive)
[3]
  GI50: 1.48 µM (inactive)
[5]
  GI50: 2.78 µM (inactive)
[6]
  GI50: 1.6 µM (inactive)
[7]
  GI50: 1.81 µM (inactive)
[8]
  GI50: 1.63 µM (inactive)
[9]
  GI50: 2.52 µM (inactive)
[10]
  GI50: 1.83 µM (inactive)
[11]
  GI50: 4.36 µM (inactive)
[54]
  GI50: 2.62 µM (inactive)
[12]
  GI50: 1.86 µM (inactive)
[14]
  GI50: 1.52 µM (inactive)
[55]
  GI50: 5.01 µM (inactive)
[15]
  GI50: 1.56 µM (inactive)
[16]
  GI50: 1.75 µM (inactive)
[17]
  GI50: 2.99 µM (inactive)
[19]
  GI50: 2.04 µM (inactive)
[20]
  GI50: 1.71 µM (inactive)
[21]
  GI50: 1.74 µM (inactive)
[56]
  GI50: 1.85 µM
[23]
  GI50: 1.86 µM (inactive)
[24]
  GI50: 2.5 µM (inactive)
[25]
  GI50: 1.79 µM (inactive)
[26]
  GI50: 1.65 µM (inactive)
[27]
  GI50: 1.63 µM (inactive)
[28]
  GI50: 1.67 µM (inactive)
[30]
  GI50: 1.6 µM (inactive)
[31]
  GI50: 2.25 µM (inactive)
[32]
  GI50: 1.65 µM (inactive)
[34]
  GI50: 3.18 µM (inactive)
[35]
  GI50: 1.46 µM (inactive)
[36]
  GI50: 1.51 µM (inactive)
[37]
  GI50: 2.01 µM (inactive)
[38]
  GI50: 1.81 µM (inactive)
[39]
  GI50: 3.44 µM (inactive)
[57]
  GI50: 2.25 µM (inactive)
[58]
  GI50: 1.97 µM (inactive)
[40]
  GI50: 2.12 µM (inactive)
[41]
  GI50: 1.65 µM (inactive)
[42]
  GI50: 1.54 µM (inactive)
[44]
  GI50: 7 µM (inactive)
[45]
  GI50: 1.62 µM (inactive)
[46]
  GI50: 1.77 µM (inactive)
[47]
  GI50: 1.44 µM (inactive)
[48]
  GI50: 2.88 µM (inactive)
[49]
  GI50: 1.94 µM (inactive)
[50]
  GI50: 2.3 µM (inactive)
[51]
  GI50: 1.79 µM (inactive)
[52]
  GI50: 2.16 µM (inactive)
